Results filed as inconclusive are left out.
Tested on: HeLa Env/CEM cell fusion, luciferase, 16-24 h
Assay: blockers of HIV-1 ZM109 envelope-driven cell-cell fusion – HeLa effector, CEM target cells, luciferase, cherry-pick, dose response (AID 652058)

## O=C(C[C@H]1C[C@H]2c3cc(NC(=O)c4ccc5c(c4)OCO5)ccc3O[C@H]2[C@H](CO)O1)NCc1ccc(Oc2ccccc2)cc1
  AC50: 13.7 µM

From PubChem BioAssay AID652058 (Broad Institute, 2013)
